In patent US10357481B2 (MERCK SHARP & DOHME CORP., priority 2015, dated 2019):

biological target: T1, human PDE2A1 (Homo sapiens, UniProt O00408); assay: IMAP FP PDE selectivity panel, human PDE2A1; assay type: biochemical; details: Lab B; read-out: Human PDE2 Ki (nM) Lab B
T1 construct: GST; purchased BPS Bioscience (San Diego, Calif.) 60020; host or cells: insect cells
Protocol: Selectivity for PDE2, as compared to other PDE families, was assessed using the IMAP® technology. Human PDE10A2 enzyme was prepared from cytosolic fractions of transiently transfected HEK cells.
Assays for PDE 1 through 11 were performed in parallel at room temperature in 384-well microtiter plates with an incubation volume of 20.2 μL. Solutions of test compounds were prepared in DMSO and serially diluted with DMSO to yield 30 μL of each of ten solutions differing by 3-fold in concentration, at 32 serial dilutions per plate. […] A Labcyte POD 810 (Labcyte, Sunnyvale, Calif.) was used to dispense 200 nL from each well of the titration plate to make eleven copies of the assay plate for each titration, one copy for each PDE enzyme. A solution of each enzyme (dilution from aliquots, sufficient to produce 20% substrate conversion) and a separate solution of FAM-labeled cAMP or FAM-labeled cGMP from Molecular Devices (Sunnyvale, Calif., product # R7506 or cGMP#R7508), at a final concentration of 50 nM were made in the assay buffer (10 mM Tris HCl, pH 7.2, 10 mM MgCl2, 0.05% NaN3 0.01% Tween-20, and 1 mM DTT). Note that the substrate for PDE2 is 50 nM FAM cAMP containing 1000 nM of cGMP. The enzyme and the substrate were then added to the assay plates in two consecutive additions of 10 μL and then shaken to mix. The reaction was allowed to proceed at room temperature for 60 minutes. A binding solution was then made from the kit components, comprised of 80% Solution A, 20% Solution B and binding reagent at a volume of 1/600 the total binding solution. The enzymatic reaction was stopped by addition of 60 μL of the binding solution to each well of the assay plate. The plates were sealed and shaken for 10 seconds. The plates were incubated at room temperature for one hour, then the parallel and perpendicular fluorescence was measured using a Tecan Genios Pro plate reader (Tecan, Switzerland). […] The intrinsic PDE2 inhibitory activity of a compound which may be used in accordance with the present invention may be determined by these assays.

T1 sequence (O00408 1-920 isoform O00408-2): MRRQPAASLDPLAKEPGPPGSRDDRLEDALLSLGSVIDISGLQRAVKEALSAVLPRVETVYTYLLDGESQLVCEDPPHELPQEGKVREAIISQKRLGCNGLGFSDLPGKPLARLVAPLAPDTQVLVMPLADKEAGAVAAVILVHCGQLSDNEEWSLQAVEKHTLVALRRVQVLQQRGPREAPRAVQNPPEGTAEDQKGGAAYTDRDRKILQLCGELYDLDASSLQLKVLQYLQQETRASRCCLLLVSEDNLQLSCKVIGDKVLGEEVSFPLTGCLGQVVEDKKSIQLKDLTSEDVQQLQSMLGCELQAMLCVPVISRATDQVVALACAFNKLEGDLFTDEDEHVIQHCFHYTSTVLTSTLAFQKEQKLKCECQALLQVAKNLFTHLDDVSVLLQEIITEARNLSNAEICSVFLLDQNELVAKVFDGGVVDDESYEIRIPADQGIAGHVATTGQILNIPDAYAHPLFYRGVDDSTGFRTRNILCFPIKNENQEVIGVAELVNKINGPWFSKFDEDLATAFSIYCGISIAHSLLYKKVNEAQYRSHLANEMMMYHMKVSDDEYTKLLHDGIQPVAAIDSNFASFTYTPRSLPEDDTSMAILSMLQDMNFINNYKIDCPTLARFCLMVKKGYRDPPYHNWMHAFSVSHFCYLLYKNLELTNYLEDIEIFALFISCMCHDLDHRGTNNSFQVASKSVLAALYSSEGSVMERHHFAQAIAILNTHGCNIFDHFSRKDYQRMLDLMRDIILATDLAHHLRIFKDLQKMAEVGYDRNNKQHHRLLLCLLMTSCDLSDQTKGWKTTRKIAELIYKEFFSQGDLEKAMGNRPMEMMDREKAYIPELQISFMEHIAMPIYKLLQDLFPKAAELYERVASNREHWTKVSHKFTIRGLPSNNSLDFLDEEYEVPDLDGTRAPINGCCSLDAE

| SMILES | Ki |
| --- | --- |
| Cc1cc(N[C@H](c2ccc(OC(F)(F)F)c(F)c2)C(C)(C)O)n2ncnc2n1 (single isomer, unassigned) [Example 91] | > 2960 nM |
| Cc1cc(NC(c2ccc(C(F)(F)F)cc2Cl)C(C)(C)O)n2ncnc2n1 (single isomer, unassigned) [Example 104, (1S or R)-1-[2-Chloro-4-(trifluoromethyl)phenyl]-2-methyl-1-[(5-methyl[1,2,4]triazolo[1,5-a]pyrimidin-7-yl)amino]propan-2-ol] | ~2780 nM |
| Cc1cc(NC(c2ccc(C(F)(F)F)cc2Cl)C(C)(C)O)n2ncnc2n1 (single isomer, unassigned) [Example 105, (1R or S)-1-[2-Chloro-4-(trifluoromethyl)phenyl]-2-methyl-1-[(5-methyl[1,2,4]triazolo[1,5-a]pyrimidin-7-yl)amino]propan-2-ol] | 38 nM |
| Cc1cc(NC(c2ccc(C(C)(C)C)cc2)C(C)(C)O)n2ncnc2n1 (single isomer, unassigned) [Example 106] | > 1240 nM |
| Cc1cc(NC(c2ccc(C(C)(C)C)cc2)C(C)(C)O)n2ncnc2n1 (single isomer, unassigned) [Example 107] | 13 nM |
| Cc1cc(NC(c2ccc(C(F)F)cc2)C(C)(C)O)n2ncnc2n1 (single isomer, unassigned) [Example 108, (1S or R)-1-[4-(Difluoromethyl)phenyl]-2-methyl-1-[(5-methyl [1,2,4]triazolo [1,5-a]pyrimidin-7-yl)amino] propan-2-ol] | 49 nM |
| Cc1cc(NC(c2ccc(C(F)F)cc2)C(C)(C)O)n2ncnc2n1 (single isomer, unassigned) [Example 109, (1R or S)-1-[4-(Difluoromethyl)phenyl]-2-methyl-1-[(5-methyl [1,2,4]triazolo [1,5-a]pyrimidin-7-yl)amino] propan-2-ol] | 905 nM |
| Cc1cc(NC(c2ccc(OC(F)F)cc2)C(C)(C)O)n2ncnc2n1 (single isomer, unassigned) [Example 110, (1S or R)-1-[4-(Difluoro-methoxy)phenyl]-2-methyl-1-[(5-methyl[1,2,4]triazolo[1,5-a]pyrimidin-7-yl)amino]propan-2-ol] | > 2960 nM |
| Cc1cc(NC(c2ccc(OC(F)F)cc2)C(C)(C)O)n2ncnc2n1 (single isomer, unassigned) [Example 111, (1R or S)-1-[4-(Difluoro-methoxy)phenyl]-2-methyl-1-[(5-methyl[1,2,4]triazolo[1,5-a]pyrimidin-7-yl)amino]propan-2-ol] | 26 nM |
| Cc1cc(NC(c2ccc3c(c2)OC(F)(F)O3)C(C)(C)O)n2ncnc2n1 (single isomer, unassigned) [Example 112, (1S or R)-1-(2,2-Difluoro-1,3-benzodioxol-5-yl)-2-methyl-1-[(5-methyl[1,2,4]triazolo[1,5-a]pyrimidin-7-yl)amino]propan-2-ol] | > 2960 nM |
| Cc1cc(NC(c2ccc3c(c2)OC(F)(F)O3)C(C)(C)O)n2ncnc2n1 (single isomer, unassigned) [Example 113, (1R or S)-1-(2,2-Difluoro-1,3-benzodioxol-5-yl)-2-methyl-1-[(5-methyl[1,2,4]triazolo[1,5-a]pyrimidin-7-yl)amino]propan-2-ol] | 93 nM |
| Cc1cc(NC(c2ccc(C(F)(F)F)cc2F)C(C)(C)O)n2ncnc2n1 (single isomer, unassigned) [Example 114, (1S or R)-1-[2-Fluoro-4-(trifluoromethyl)phenyl]-2-methyl-1-[(5-methyl [1,2,4]triazolo [1,5-a]pyrimidin-7-yl)amino] propan-2-ol] | > 2960 nM |
| Cc1cc(NC(c2ccc(C(F)(F)F)cc2F)C(C)(C)O)n2ncnc2n1 (single isomer, unassigned) [Example 115, (1R or S)-1-[2-Fluoro-4-(trifluoromethyl)phenyl]-2-methyl-1-[(5-methyl [1,2,4]triazolo [1,5-a]pyrimidin-7-yl)amino] propan-2-ol] | 23 nM |
| Cc1cc(NC(c2ccc(S(F)(F)(F)(F)F)cc2)C(C)(C)O)n2ncnc2n1 (single isomer, unassigned) [Example 116, (1S or R)-2-Methyl-1-[(5-methyl[1,2,4]triazolo[1,5-a]pyrimidin-7-yl)amino]-1-[4-(pentafluoro-λ^6-sulfanyl)phenyl] propan-2-ol] | > 2960 nM |
| Cc1cc(NC(c2ccc(CC(F)(F)F)cc2)C(C)(C)O)n2ncnc2n1 (single isomer, unassigned) [Example 118, (1S or R)-2-Methyl-1-[(5-methyl [1,2,4]triazolo [1,5-a]pyrimidin-7-yl)amino]-1-[4-(2,2,2-trifluoroethyl)phenyl]propan-2-ol] | > 2960 nM |
| Cc1cc(NC(c2ccc(CC(F)(F)F)cc2)C(C)(C)O)n2ncnc2n1 (single isomer, unassigned) [Example 119, (1R or S)-2-Methyl-1-[(5-methyl [1,2,4]triazolo [1,5-a]pyrimidin-7-yl)amino]-1-[4-(2,2,2-trifluoroethyl)phenyl]propan-2-ol] | 15 nM |
| Cc1cc(NC(c2ccc(C3(C)CC3)cc2)C(C)(C)O)n2ncnc2n1 (single isomer, unassigned) [Example 120, (1S or R)-2-Methyl-1-[4-(1-methyl-cyclopropyl)phenyl]-1-[(5-methyl[1,2,4]triazolo[1,5-a]pyrimidin-7-yl)amino]propan-2-ol] | > 2960 nM |
| Cc1cc(NC(c2ccc(C3(C)CC3)cc2)C(C)(C)O)n2ncnc2n1 (single isomer, unassigned) [Example 121, (1R or S)-2-Methyl-1-[4-(1-methyl-cyclopropyl)phenyl]-1-[(5-methyl[1,2,4]triazolo[1,5-a]pyrimidin-7-yl)amino]propan-2-ol] | 11 nM |
| Cc1cc(NC(c2ccc3ccccc3c2)C(C)(C)O)n2ncnc2n1 (single isomer, unassigned) [Example 122, (1S or R)-2-Methyl-1-[(5-methyl [1,2,4]triazolo [1,5-a]pyrimidin-7-yl)amino]-1-naphthalen-2-yl propan-2-ol] | > 2960 nM |
| Cc1cc(NC(c2ccc3ccccc3c2)C(C)(C)O)n2ncnc2n1 (single isomer, unassigned) [Example 123, (1R or S)-2-Methyl-1-[(5-methyl [1,2,4]triazolo [1,5-a]pyrimidin-7-yl)amino]-1-naphthalen-2-yl propan-2-ol] | 35 nM |
| Cc1cc(NC(c2cc3ccccc3n2C)C(C)(C)O)n2ncnc2n1 (single isomer, unassigned) [Example 124, (1S or R)-2-Methyl-1-(1-methyl-1H-indol-2-yl)-1-[(5-methyl [1,2,4]triazolo [1,5-a]pyrimidin-7-yl)amino] propan-2-ol] | 79 nM |
| Cc1cc(NC(c2cc3ccccc3n2C)C(C)(C)O)n2ncnc2n1 (single isomer, unassigned) [Example 125, (1R or S)-2-Methyl-1-(1-methyl-1H-indol-2-yl)-1-[(5-methyl [1,2,4]triazolo [1,5-a]pyrimidin-7-yl)amino] propan-2-ol] | > 2960 nM |
| Cc1cc(NC(c2ccc(-c3ccccc3)cc2)C(C)(C)O)n2ncnc2n1 (single isomer, unassigned) [Example 126, (1S or R)-1-Biphenyl-4-yl-2-methyl-1-[(5-methyl[1,2,4]triazolo[1,5-a]pyrimidin-7-yl)amino]propan-2-ol] | > 2960 nM |
| Cc1cc(NC(c2ccc(-c3ccccc3)cc2)C(C)(C)O)n2ncnc2n1 (single isomer, unassigned) [Example 127, (1R or S)-1-Biphenyl-4-yl-2-methyl-1-[(5-methyl[1,2,4]triazolo[1,5-a]pyrimidin-7-yl)amino]propan-2-ol] | 21 nM |
| Cc1cc(NC(c2ccc(OC(F)(F)F)cc2C)C(C)(C)O)n2ncnc2n1 (single isomer, unassigned) [Example 128, (1S or R)-2-Methyl-1-[(5-methyl[1,2,4]triazolo[1,5-a]pyrimidin-7-yl)amino]-1-[2-methyl-4-(trifluoromethoxy)phenyl]propan-2-ol] | > 2960 nM |
| Cc1cc(NC(c2ccc(OC(F)(F)F)cc2C)C(C)(C)O)n2ncnc2n1 (single isomer, unassigned) [Example 129, (1R or S)-2-Methyl-1-[(5-methyl[1,2,4]triazolo[1,5-a]pyrimidin-7-yl)amino]-1-[2-methyl-4-(trifluoromethoxy)phenyl]propan-2-ol] | 21 nM |
| Cc1cc(NC(c2ccc(OC(F)(F)F)c(F)c2)C(C)(C)O)n2nc(C)nc2n1 (single isomer, unassigned) [Example 132, (1S or R)-1-[(2,5-Dimethyl[1,2,4]triazolo[1,5-a]pyrimidin-7-yl)amino]-1-[3-fluoro-4-(trifluoromethoxy)phenyl]-2-methylpropan-2-ol] | > 2960 nM |
